# Values of other authors in patent publication US20020128313A1, “Method for improved pregnancy management and related composition” (priority 2000, published 2002).
# Test system: sows
# [1] = 5 mg in extended boar sperm (Gil et al., 1998)
structure (smiles),measurement,setting,value
"CCCCC[C@H](O)/C=C/[C@@H]1[C@@H](C/C=C\CCCC(=O)O)[C@@H](O)C[C@H]1O [PGF2α, Prostaglandin F2α]",Likelihood of a sow to become pregnant,[1],increased the likelihood of a sow to become pregnant
same,Number of piglets born alive,[1],increased number of piglets born alive
same,Effect on seasonal infertility in sows,"Pena et al., 1998",helped alleviate the effect of seasonal infertility
